Measurements as given in US8134015B2, “Compound inhibiting in vivo phosphorous transport and medicine containing the same” (Kyowa Hakko Kirin Co., Ltd., priority 2003, dated 2012).

Target: T1, rat NaPi-2b (Rattus norvegicus, UniProt Q9JJ09)
T1 construct: expressed in transfected cells; host or cells: Xenopus oocytes injected with cRNA
T1 sequence (Q9JJ09 1-695): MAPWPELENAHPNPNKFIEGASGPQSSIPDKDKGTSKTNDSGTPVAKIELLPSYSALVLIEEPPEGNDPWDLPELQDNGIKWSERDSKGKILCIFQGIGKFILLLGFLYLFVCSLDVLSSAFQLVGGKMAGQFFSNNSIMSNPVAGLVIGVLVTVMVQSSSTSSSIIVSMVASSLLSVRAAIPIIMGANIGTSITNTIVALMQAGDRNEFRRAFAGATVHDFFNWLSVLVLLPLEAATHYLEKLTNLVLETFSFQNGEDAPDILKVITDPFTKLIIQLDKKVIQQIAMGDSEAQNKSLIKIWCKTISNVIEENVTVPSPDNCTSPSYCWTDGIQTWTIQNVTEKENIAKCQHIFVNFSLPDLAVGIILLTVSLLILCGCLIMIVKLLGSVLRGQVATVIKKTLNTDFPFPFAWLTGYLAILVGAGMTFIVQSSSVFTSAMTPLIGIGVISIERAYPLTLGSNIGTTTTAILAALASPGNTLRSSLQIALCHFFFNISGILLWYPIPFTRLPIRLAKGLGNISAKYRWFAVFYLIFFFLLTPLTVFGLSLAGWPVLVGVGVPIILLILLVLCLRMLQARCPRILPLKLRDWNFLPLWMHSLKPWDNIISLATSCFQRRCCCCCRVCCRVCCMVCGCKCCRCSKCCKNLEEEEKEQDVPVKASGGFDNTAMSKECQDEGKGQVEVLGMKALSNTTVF
Test: Sodium-dependent phosphate uptake of Xenopus oocytes which expressed NaPi-2b (32P)
Format: cell-based
Conditions: Xenopus oocytes expressing rat NaPi-2b, 32P radioactive phosphorus; read-out: IC50 (phosphate uptake inhibitory activity)
How it was run: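 Inhibition at 300 μM and 100 μM was read off one inhibition curve of 32P phosphate uptake. Uptake was measured in Xenopus oocytes cultured 2 days after injection of cRNA for cloned rat NaPi-2b.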

| Compound | IC50 |
| --- | --- |
| Cc1ccc(/C=N/NC(=O)c2c(NC(=O)c3cccc(CSCCCO)c3)sc3c2CCCC3)cc1C [Compound 605, N-[3-(3,4-Dimethyl-benzylidene-hydrazinocarbonyl)-4,5,6,7-tetrahydro-benzo[b]thiophen-2-yl]-3-(3-hydroxy-propylsulfanyl-methyl)-benzamide] | 0.95 µM |
| CCN(CC)CCN(C)Cc1cccc(-c2nc3sc4c(c3c(=O)n2/N=C/c2ccc(OC)cc2)CCCC4)c1 [Compound 675, 2-(3-{[(2-Diethylamino-ethyl)-methyl-amino]-methyl}-phenyl)-3-[(4-methoxy-benzylidene-)-amino]-5,6,7,8-tetrahydro-3H-benzo[4,5]thieno[2,3-d]pyrimidin-4-one] | < 3 µM |
| CCN(CC)CCN(C)Cc1cccc(C(=O)Nc2ccc(Cl)cc2C(=O)N/N=C/c2cccc(O)c2)c1 [Compound 387, N-[4-Chloro-2-(3-hydroxy-benzylidene-hydrazinocarbonyl)-phenyl]-3-{[(2-diethylamino-ethyl)-methyl-amino]-methyl}-benzamide] | 6.45 µM |
| Cc1ccc(/C=N/NC(=O)c2cc(Br)ccc2NC(=O)c2ccco2)cc1 [Compound 154, Furan-2-carboxylic acid [4-bromo-2-(4-methyl-benzylidene-hydrazinocarbonyl)-phenyl]-amide] | 2.37 µM |
| COc1ccc(C(=O)Nc2ccccc2C(=O)N/N=C(\C)c2cccc(F)c2)cc1OC [Compound 213, N-{2-[1-(3-Fluoro-phenyl)-ethylidene-hydrazinocarbonyl]-phenyl}-3,4-dimethoxy-benzamide] | 16.6 µM |
| CCN(CC)CCNCc1cccc(C(=O)Nc2scc(C)c2C(=O)N/N=C/c2ccc(Cl)c(C(F)(F)F)c2)c1 [Compound 585, N-[3-(4-Chloro-3-trifluoromethyl-benzylidene-hydrazinocarbonyl)-4-methyl-thiophen-2-yl]-3-[(2-diethylamino-ethylamino)-methyl]-benzamide] | < 3 µM |
| O=C(Nc1ccccc1C(=O)N/N=C/c1ccc(O)cc1)c1cccc(F)c1 [Compound 86, 3-Fluoro-N-[2-(4-hydroxy-benzylidene-hydrazinocarbonyl)-phenyl]-benzamide] | 11.4 µM |
| CCN(CC)CCN(C)Cc1cccc(C(=O)Nc2sc3c(c2C(=O)N/N=C/c2ccc(Cl)c(C(F)(F)F)c2)CCCC3)c1 [Compound 613, N-[3-(4-Chloro-3-trifluoromethyl-benzylidene-hydrazinocarbonyl)-4,5,6,7-tetrahydro-benzo[b]thiophen-2-yl]-3-{[(2-diethylamino-ethyl)-methyl-amino]-methyl}-benzamide] | 1.41 µM |
| CCN(CC)CCN(C)Cc1cccc(C(=O)Nc2sccc2C(=O)N/N=C/c2cccc(F)c2)c1 [Compound 667, 3-{[(2-Diethylamino-ethyl)-methyl-amino]-methyl}-N-[3-(3-fluoro-benzylidene-hydrazinocarbonyl)-thiophen-2-yl]-benzamide] | 30.5 µM |
| COc1cccc(/C=N/NC(=O)c2cc(Br)ccc2NC(=O)c2ccc(CN3CCN(CC(=O)N4CCOCC4)CC3)cc2)c1 [Compound 732, N-[4-Bromo-2-(3-methoxy-benzylidene-hydrazinocarbonyl)-phenyl]-4-[4-(2-morpholin-4-yl-2-oxo-ethyl)-piperazin-1-ylmethyl]-benzamide] | 29.4 µM |
| O=C(Nc1ccc(Br)cc1C(=O)N/N=C/c1ccc(Cl)c(C(F)(F)F)c1)c1ccc(CN2CCC(CO)CC2)cc1 [Compound 337, N-[4-Bromo-2-(4-chloro-3-trifluoromethyl-benzylidene-hydrazinocarbonyl)-phenyl]-4-(4-hydroxymethyl-piperidin-1-ylmethyl)-benzamide] | 1.39 µM |
| COc1ccc(/C=N/NC(=O)c2ccsc2NC(=O)c2cccc(CSCCCO)c2)cc1 [Compound 663, 3-(3-Hydroxy-propylsulfanylmethyl)-N-[3-(4-methoxy-benzylidene-hydrazinocarbonyl)-thiophen-2-yl]-benzamide] | 137 µM |
| C/C(=N\NC(=O)c1cc(Br)ccc1NC(=O)c1cccnc1)c1cccc(C)c1 [Compound 215, N-[4-Bromo-2-(1-m-toluyl-ethylidene-hydrazinocarbonyl)-phenyl]-nicotinamide] | < 3 µM |
| CCN(CC)CCN(Cc1cccc(C(=O)Nc2sc3c(c2C(=O)N/N=C/c2ccc(C)cc2)CCCC3)c1)C(C)=O [Compound 653, 3-{[Acetyl-(2-diethylamino-ethyl)-amino]-methyl}-N-[3-(4-methyl-benzylidene-hydrazinocarbonyl)-4,5,6,7-tetrahydro-benzo[b]-thiophen-2-yl]-benzamide] | 1.1 µM |
| COc1cc(OC)cc(C(=O)Nc2ccccc2C(=O)N/N=C/c2ccc(F)cc2)c1 [Compound 56, N-[2-(4-Fluoro-benzylidene-hydrazinocarbonyl)-phenyl]-3,5-dimethoxy-benzamide] | 0.89 µM |
| COc1ccc(C(=O)Nc2cc(OC)c(OC)cc2C(=O)N/N=C/c2ccccc2)cc1OC [Compound 227, N-[2-(Benzylidene-hydrazinocarbonyl)-4,5-dimethoxy-phenyl]-3,4-dimethoxy-benzamide] | 7.4 µM |
| COc1ccc(C(=O)Nc2ccc(Br)cc2C(=O)N/N=C/c2ccccc2Br)cc1OC [Compound 14, N-[4-Bromo-2-(2-bromo-benzylidene-hydrazinocarbonyl)-phenyl]-3,4-dimethoxy-benzamide] | 12.1 µM |
| Cc1ccc(/C=N/NC(=O)c2cc(N3CCOCC3)ccc2NC(=O)c2cccc(CSCCO)c2)cc1C [Compound 1064, N-[2-(3,4-Dimethyl-benzylidene-hydrazinocarbonyl)-4-morpholin-4-yl-phenyl]-3-(2-hydroxy-ethylsulfanylmethyl)-benzamide] | < 1 µM |
| COc1ccc(C(=O)Nc2ccc(Br)cc2C(=O)N/N=C(\C)c2cccc(F)c2)cc1OC [Compound 214, N-{4-Bromo-2-[1-(3-fluoro-phenyl)-ethylidene-hydrazinocarbonyl]-phenyl}-3,4-dimethoxy-benzamide] | 3.95 µM |
| O=C(Nc1ccc(Br)cc1C(=O)NN=Cc1ccc(Cl)c(C(F)(F)F)c1)c1ccc(CNC(CN2CCOCC2)c2ccccc2)cc1 (stereo not drawn) [Compound 747, N-[4-Bromo-2-(4-chloro-3-trifluoromethyl-benzylidene-hydrazinocarbonyl)-phenyl]-4-[(2-morpholin-4-yl-1-phenyl-ethylamino)-methyl]-benzamide] | 11.9 µM |
| CCN(CC)CCN(C)Cc1cccc(C(=O)Nc2ccc(OCCCCF)cc2C(=O)N/N=C/c2ccc(C)cc2)c1 [Compound 1058, 3-{[(2-Diethylamino-ethyl)-methyl-amino]-methyl}-N-[4-(4-fluoro-butoxy)-2-(4-methyl-benzylidene-hydrazinocarbonyl)-phenyl]-benzamide] | 1.07 µM |
| Cc1csc(NC(=O)c2cccc(CN(CC(C)O)CC(C)O)c2)c1C(=O)N/N=C/c1cccc(F)c1 (stereo not drawn) [Compound 590, 3-{[Bis-(2-hydroxy-propyl)-amino]-methyl}-N-[3-(3-fluoro-benzylidene-hydrazinocarbonyl)-4-methyl-thiophen-2-yl]-benzamide] | 6.18 µM |
| Cc1sc(NC(=O)c2cccc(CN(CC(C)O)CC(C)O)c2)c(C(=O)N/N=C/c2ccc(Cl)c(C(F)(F)F)c2)c1C (stereo not drawn) [Compound 847, 3-{[Bis-(2-hydroxy-propyl)-amino]-methyl}-N-[3-(4-chloro-3-trifluoromethyl-benzylidene-hydrazinocarbonyl)-4,5-dimethyl-thiophen-2-yl]-benzamide] | < 3 µM |
| O=C(Nc1ccc(Br)cc1C(=O)N/N=C/c1ccc(Cl)c(C(F)(F)F)c1)c1ccc(CN2CCN(CC(=O)N3CCOCC3)CC2)cc1 [Compound 306, N-[4-Bromo-2-(4-chloro-3-trifluoromethyl-benzylidene-hydrazinocarbonyl)-phenyl]-4-[4-(2-morpholin-4-yl-2-oxo-ethyl)-piperazin-1-ylmethyl]-benzamide] | 2.13 µM |

Same assay, conditions: phosphate uptake, oocytes expressing rat NaPi-2b; 300 μM, determined from inhibition curve

| Compound | inhibition at 300 µM |
| --- | --- |
| CCN(CC)Cc1cccc(C(=O)Nc2sc(CN3CCCCC3)c(C)c2C(=O)N/N=C/c2ccc(OC)cc2)c1 [Compound 957, 3-Diethylaminomethyl-N-[3-(4-methoxy-benzylidene-hydrazinocarbonyl)-4-methyl-5-piperidin-1-ylmethyl-thiophen-2-yl]-benzamide] | 54.9% |
| CCN(CC)CCN(C)Cc1cccc(C(=O)Nc2c(C)csc2C(=O)N/N=C/c2ccc(C)cc2)c1 [Compound 710, 3-{[(2-Diethylamino-ethyl)-methyl-amino]-methyl}-N-[4-methyl-2-(4-methyl-benzylidene-hydrazinocarbonyl)-thiophen-3-yl]-benzamide] | 83.1% |
| CCN(CC)CC(O)COc1ccc(NC(=O)c2cccc(CN(CC(C)O)CC(C)O)c2)c(C(=O)N/N=C/c2ccc(C)c(C)c2)c1 (stereo not drawn) [Compound 951, 3-{[Bis-(2-hydroxy-propyl)-amino]-methyl}-N-[4-(3-diethylamino-2-hydroxy-propoxy)-2-(3,4-dimethyl-benzylidene-hydrazinocarbonyl)-phenyl]-benzamide] | 68.5% |
